Source: patent US20090123543A1, “PHARMACEUTICAL COMPOSITIONS” (priority 2006, published 2009)

Test: Comparative physical (blend) properties of valsartan and valsartan granules
Format: physicochemical
Experimental: Valsartan was added to molten Lutrol F127 (at about 60-65° C.) under continuous mixing till a uniform semi-solid mixture was obtained. Weighed quantity of microcrystalline cellulose was added to the molten semi-solid mixture under continuous mixing. The blend was then allowed to cool to room temperature and the cooled mass was crushed and passed through 20# sieve.

Bulk density (blend property): 0.12 g/mL | Flow (flow through funnel/orifice): as valsartan did not flow
Compound: CCCCC(=O)N(Cc1ccc(-c2ccccc2-c2nnn[nH]2)cc1)[C@H](C(=O)O)C(C)C [Valsartan]
